According to ChEMBL document CHEMBL5316263, “Structure-Based Discovery of Selective Histone Deacetylase 8 Degraders with Potent Anticancer Activity” (J Med Chem, 2023):
Calls of active or inactive are those of the source. No cut-off for these calls is given here.

Tests used:
[1] = test system: A549; test: Induction of apoptosis in human A549 cells incubated for 72 hrs by annexin V-FITC staining based flow cytometry; type: functional, cell-based; settings: dose 1.25-20 µM
[2] = test system: A549; test: Effect on MAPK4 gene in human A549 cells at 10 uM measured after 20 hrs by RNA sequencing analysis; type: functional, cell-based
[3] = molecular target: T1, Protein cereblon/Histone deacetylase 8 (Homo sapiens) (UniProt Q9BY41+Q96SW2); test: Protac activity at CRBN/HDAC8 in human Jurkat cells at 0.1 to 10 uM measured after 20 hrs by Western blot analysis; type: cell-based; settings: dose 0.1-10 µM
[4] = test system: A549; test: Antitumor activity against human A549 cells xenografted in NOD/SCID mouse assessed as decrease in HDAC8 expression at 5 mg/kg, ip administered every 5 days measured at day 30 under irradiation condition by […] analysis; type: functional, organism-based; settings: time 30.0 day
[5] = molecular target: T1, Protein cereblon/Histone deacetylase 8 (Homo sapiens); test: Protac activity at CRBN/HDAC8 in human HeLa cells assessed as reduction in HDAC8 protein level at 0.1 to 10 uM by Western blot analysis; type: cell-based; settings: dose 0.1-10 µM
[6] = test system: A549; test: Induction of apoptosis in human A549 cells assessed as necrotic cells at 10 uM incubated for 72 hrs by annexin V-FITC staining based flow cytometry relative to control; type: functional
[7] = test system: A549; test: Effect on TIPARP gene in human A549 cells at 10 uM measured after 20 hrs by RNA sequencing analysis; type: functional, cell-based
[8] = test system: A549; test: Induction of apoptosis in human A549 cells assessed as necrotic cells at 5 uM incubated for 72 hrs by annexin V-FITC staining based flow cytometry relative to control; type: functional
[9] = test system: A549; test: Effect on ARPIN gene in human A549 cells at 10 uM measured after 20 hrs by RNA sequencing analysis; type: functional, cell-based
[10] = test system: A549; test: Induction of apoptosis in human A549 cells assessed as early apoptotic cells at 20 uM incubated for 72 hrs by annexin V-FITC staining based flow cytometry (reference value: 0.099%); type: functional
[11] = test system: A549; test: Downregulation of RIMKLB in human A549 cells measured after 20 hrs by proteomic analysis; type: functional, cell-based
[12] = test system: A549; test: Antitumor activity against human A549 cells xenografted in NOD/SCID mouse at 5 mg/kg, ip administered every 5 days measured at day 30; type: functional, organism-based; settings: time 30.0 day
[13] = test system: A549; test: Induction of apoptosis in human A549 cells assessed as necrotic cells at 1.25 uM incubated for 72 hrs by annexin V-FITC staining based flow cytometry relative to control; type: functional
[14] = test system: A549; test: Induction of apoptosis in human A549 cells assessed as early apoptotic cells at 1.25 uM incubated for 72 hrs by annexin V-FITC staining based flow cytometry (reference value: 0.099%); type: functional
[15] = test system: A549; test: Induction of apoptosis in human A549 cells assessed as viable cells at 1.25 uM incubated for 72 hrs by annexin V-FITC staining based flow cytometry (reference value: 99.9%); type: functional; settings: read-out: Activity
[16] = test system: Jurkat; test: Antiproliferative activity against human Jurkat cells at 0.1 to 10 uM measured after 72 hrs by CCK-8 method; type: functional, cell-based; settings: dose 0.1-10 µM
[17] = test system: A549; test: Antitumor activity against human A549 cells xenografted in NOD/SCID mouse assessed as increase in gamma-H2AX expression at 5 mg/kg, ip administered every 5 days measured at day 30 under irradiation condition by […] analysis; type: functional, organism-based; settings: time 30.0 day
[18] = test system: A549; test: Antitumor activity against human A549 cells xenografted in NOD/SCID mouse assessed as decrease in HDAC8 expression at 5 mg/kg, ip administered every 5 days measured at day 30 by […] analysis; type: functional, organism-based; settings: time 30.0 day
[19] = test system: A549; test: Induction of apoptosis in human A549 cells assessed as viable cells at 5 uM incubated with compound followed by irradiation by annexin V-FITC staining based flow cytometry (reference value: 89.7%); type: functional; settings: A549, light or radiation study, read-out: Activity
[20] = test system: HBEC3-KT; test: Antiproliferative activity against human HBEC3-KT cells at 0.1 to 10 uM measured after 72 hrs by CCK-8 method; type: functional, cell-based; settings: dose 0.1-10 µM
[21] = test system: A549; test: Effect on NPTX1 gene in human A549 cells at 10 uM measured after 20 hrs by RNA sequencing analysis; type: functional, cell-based
[22] = test system: A549; test: Induction of apoptosis in human A549 cells assessed as necrotic cells at 5 uM incubated with compound followed by irradiation by annexin V-FITC staining based flow cytometry (reference value: 2.02%); type: functional
[23] = molecular target: Protein cereblon/Histone deacetylase 2 (Homo sapiens) (UniProt Q92769+Q96SW2); test: Protac activity at CRBN/HDAC2 in human A549 cells assessed as reduction in HDAC2 protein level at 0.1 to 10 uM by Western blot analysis; type: cell-based; settings: dose 0.1-10 µM
[24] = molecular target: T1, Protein cereblon/Histone deacetylase 8 (Homo sapiens); test: In vivo protac activity at CRBN/HDAC8 in human A549 cells xenografted in NOD/SCID mouse assessed as degradation of HDAC8 at 5 mg/kg, ip administered every 5 days measured at day 30 by Western blot analysis; type: functional, organism-based; settings: time 30.0 day
[25] = test system: A549; test: Induction of apoptosis in human A549 cells assessed as early apoptotic cells at 2.5 uM incubated for 72 hrs by annexin V-FITC staining based flow cytometry (reference value: 0.099%); type: functional
[26] = molecular target: Cereblon/Ikaros (Homo sapiens) (UniProt Q96SW2+Q13422); test: Protac activity at CRBN/IKZF1 in human A549 cells assessed as reduction in IKZF1 protein level at 10 uM by Western blot analysis; type: cell-based
[27] = test system: A549; test: Induction of apoptosis in human A549 cells assessed as necrotic cells at 5 uM incubated for 48 hrs by annexin V FITC and propidium iodide based flow cytometry relative to control; type: functional
[28] = molecular target: T1, Protein cereblon/Histone deacetylase 8 (Homo sapiens); test: Protac activity at CRBN/HDAC8 in human HBEC3-KT cells at 0.1 to 10 uM measured after 20 hrs by Western blot analysis; type: cell-based; settings: dose 0.1-10 µM
[29] = test system: A549; test: Antitumor activity against human A549 cells xenografted in NOD/SCID mouse assessed as increase in number of necrotic cells at 5 mg/kg, ip administered every 5 days measured at day 30 under irradiation condition by H and E staining based analysis; type: functional, organism-based; settings: time 30.0 day
[30] = test system: A549; test: Downregulation of LAMTOR4 in human A549 cells measured after 20 hrs by proteomic analysis; type: functional, cell-based
[31] = test system: A549; test: Induction of apoptosis in human A549 cells assessed as necrotic cells at 5 uM by annexin V-FITC staining based flow cytometry (reference value: 0%); type: functional
[32] = molecular target: T1, Protein cereblon/Histone deacetylase 8 (Homo sapiens); test: Protac activity at CRBN/HDAC8 in human HCT-116 cells assessed as reduction in HDAC8 protein level at 0.1 to 10 uM by Western blot analysis; type: cell-based; settings: dose 0.1-10 µM
[33] = test system: A549; test: Induction of apoptosis in human A549 cells assessed as viable cells at 2.5 uM incubated for 72 hrs by annexin V-FITC staining based flow cytometry (reference value: 99.9%); type: functional; settings: read-out: Activity
[34] = molecular target: T1, Protein cereblon/Histone deacetylase 8 (Homo sapiens); test: In vivo protac activity at CRBN/HDAC8 in human A549 cells xenografted in NOD/SCID mouse assessed as degradation of HDAC8 at 5 mg/kg, ip administered every 5 days measured at day 30 under irradiation condition by Western blot analysis; type: functional, organism-based; settings: time 30.0 day
[35] = test system: A549; test: Effect on EREG gene in human A549 cells at 10 uM measured after 20 hrs by RNA sequencing analysis; type: functional, cell-based
[36] = test system: A549; test: Induction of apoptosis in human A549 cells assessed as early apoptotic cells at 5 uM by annexin V-FITC staining based flow cytometry (reference value: 0%); type: functional

T1 sequence (Q96SW2 whole entry, looked up): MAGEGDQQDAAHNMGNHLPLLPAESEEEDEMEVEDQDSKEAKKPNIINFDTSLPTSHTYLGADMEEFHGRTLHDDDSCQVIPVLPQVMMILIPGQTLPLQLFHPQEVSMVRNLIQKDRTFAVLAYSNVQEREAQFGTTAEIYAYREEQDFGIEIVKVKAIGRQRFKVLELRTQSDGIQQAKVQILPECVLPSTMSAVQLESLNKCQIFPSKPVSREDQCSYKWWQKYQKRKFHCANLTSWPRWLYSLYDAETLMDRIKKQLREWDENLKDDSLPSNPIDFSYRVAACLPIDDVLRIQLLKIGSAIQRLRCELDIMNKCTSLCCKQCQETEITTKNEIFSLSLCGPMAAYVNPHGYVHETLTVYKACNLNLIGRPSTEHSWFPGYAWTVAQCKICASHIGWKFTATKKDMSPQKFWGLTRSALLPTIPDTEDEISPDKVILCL
T1 sequence (Q9BY41 whole entry, looked up): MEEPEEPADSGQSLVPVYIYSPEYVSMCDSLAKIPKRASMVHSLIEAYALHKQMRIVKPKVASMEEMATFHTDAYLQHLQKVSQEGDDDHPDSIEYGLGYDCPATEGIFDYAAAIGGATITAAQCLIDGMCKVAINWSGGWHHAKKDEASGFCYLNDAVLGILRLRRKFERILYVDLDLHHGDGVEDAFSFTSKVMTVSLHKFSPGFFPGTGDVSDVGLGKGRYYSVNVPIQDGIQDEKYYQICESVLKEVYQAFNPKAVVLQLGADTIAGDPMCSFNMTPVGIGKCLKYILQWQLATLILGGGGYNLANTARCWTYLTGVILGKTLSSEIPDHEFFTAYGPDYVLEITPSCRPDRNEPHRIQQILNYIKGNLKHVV
Sequence of Protein cereblon/Histone deacetylase 2 (Homo sapiens) (Q92769 whole entry, looked up): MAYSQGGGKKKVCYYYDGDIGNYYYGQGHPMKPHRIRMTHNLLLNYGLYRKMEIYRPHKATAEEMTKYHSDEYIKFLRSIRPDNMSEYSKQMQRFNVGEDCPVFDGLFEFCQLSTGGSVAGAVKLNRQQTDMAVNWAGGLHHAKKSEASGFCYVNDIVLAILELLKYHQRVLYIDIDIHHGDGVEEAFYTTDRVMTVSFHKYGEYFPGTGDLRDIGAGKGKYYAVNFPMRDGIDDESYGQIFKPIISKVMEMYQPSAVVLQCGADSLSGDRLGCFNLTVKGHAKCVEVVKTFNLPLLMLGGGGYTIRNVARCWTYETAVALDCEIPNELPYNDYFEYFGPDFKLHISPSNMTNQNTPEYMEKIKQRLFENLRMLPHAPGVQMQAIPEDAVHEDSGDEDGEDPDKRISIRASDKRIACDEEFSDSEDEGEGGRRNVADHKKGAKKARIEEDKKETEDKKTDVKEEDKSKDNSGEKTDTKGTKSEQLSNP
Sequence of Protein cereblon/Histone deacetylase 2 (Homo sapiens) (Q96SW2 whole entry, looked up): as the sequence (Q96SW2 whole entry, looked up) above

## O=C1CCC(N2C(=O)c3cccc(NCc4cn(CCOCCOc5ccc(Cn6ccc7ccc(C(=O)NO)cc76)cc5)nn4)c3C2=O)C(=O)N1 (stereo unspecified)
[1]
  Activity: Dose-Dependent Effect
[2]
  Activity: Active
[3]
  Activity: inactive
[4]
  Activity: Active
[5]
  Activity: Active
[6]
  Activity: 1.52%
[7]
  Activity: Active
[8]
  Activity: 2.49%
[9]
  Activity: Active
[10]
  Activity: 70.4%
[11]
  Activity: Active
[12]
  Activity: Active
[13]
  Activity: 0.1%
[14]
  Activity: 24.2%
[15]
  viability at 1.25 µM: 68.2%
[16]
  Activity: Active
[17]
  Activity: Active
[18]
  Activity: Active
[19]
  viability at 5 µM: 66.3%
[20]
  Activity: Active
[21]
  Activity: Active
[22]
  Activity: 0.75%
[23]
  Activity: inactive
[24]
  Activity: Active
[25]
  Activity: 22.5%
[26]
  Activity: Active
[27]
  Activity: 30%
[28]
  Activity: inactive
[29]
  Activity: Active
[30]
  Activity: Active
[31]
  Activity: 2.37%
[32]
  Activity: Active
[33]
  viability at 2.5 µM: 61.7%
[34]
  Activity: Active
[35]
  Activity: Active
[36]
  Activity: 15.4%
